The values below come from ChEMBL document CHEMBL6127159, “A Bifunctional Sulfide Donor Approach for Ischemic Stroke: Leveraging Butylphthalide as a Carrier for Sulfide Prodrug” (J Med Chem, 2024).

Structures are written as SMILES. Activity calls are given as the source filed them. The rule behind the calls is not given here.

The target of series [1] is T1, Liver carboxylesterase (Sus scrofa, UniProt Q29550).
T1 sequence (Q29550 whole entry): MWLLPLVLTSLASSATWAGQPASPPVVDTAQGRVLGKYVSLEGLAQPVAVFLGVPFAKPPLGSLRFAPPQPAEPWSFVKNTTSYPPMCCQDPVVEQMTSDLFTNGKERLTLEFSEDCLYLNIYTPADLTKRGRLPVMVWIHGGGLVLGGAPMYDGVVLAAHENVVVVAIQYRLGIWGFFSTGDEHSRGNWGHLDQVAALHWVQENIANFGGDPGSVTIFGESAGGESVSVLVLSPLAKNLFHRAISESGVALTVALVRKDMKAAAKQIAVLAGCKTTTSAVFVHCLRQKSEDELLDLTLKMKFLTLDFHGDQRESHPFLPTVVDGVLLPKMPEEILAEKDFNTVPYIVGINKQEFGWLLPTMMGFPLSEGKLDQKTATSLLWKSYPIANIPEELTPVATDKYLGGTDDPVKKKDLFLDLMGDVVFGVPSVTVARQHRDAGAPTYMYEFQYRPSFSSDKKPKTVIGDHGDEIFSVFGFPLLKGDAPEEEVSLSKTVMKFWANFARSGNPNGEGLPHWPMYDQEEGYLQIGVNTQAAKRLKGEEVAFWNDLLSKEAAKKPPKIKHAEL
The series can be described thus: Drug metabolism in PBS assessed as porcine liver esterase mediated compound hydrolysis by measuring half life at 500 uM by UPLC method. Type of series: ADME. The note with it: pig.

Series [2] can be described thus: Drug concentration in Sprague-Dawley rat plasma at 80 umol/kg, iv measured after 1 min by LC-MS/MS analysis. Type of series: ADME, organism-based. The note with it: dose 80 µmol/kg.
Series [3] deals with Mus musculus. The series can be described thus: Neuroprotective activity against MCAO induced C57BL/6J mouse assessed as reduction in infarct area at 100 umol/kg measured after 24 hrs by TTC staining based analysis. Type of series: functional. On the set-up: scale not given: the % may be the effect or the level left. The note with it: dose 100 µmol/kg.
The nature of series [4]: Drug metabolism in Sprague-Dawley rat plasma assessed as 3-butylisobenzofuran-1(3H)-thione level at 80 umol/kg, iv measured after 1 min by LC-MS/MS analysis. Type of series: ADME, organism-based. The settings on record: in vivo, dose 80 µmol/kg.
A short description of series [5]: Cytotoxicity against […] PC12 cells upto 500 uM. The class given is toxicity, cell-based. The note with it: pc12, 500 µM.
The next series in a line: cells. The class given is functional, PC12. The settings on record: Homo sapiens, PC-12.
The subject of series [6] is Mus musculus. In words: Induction of iron-sulfur cluster related genes transcriptional level in MCAO induced C57BL/6J mouse at 100 umol/kg measured after 24 hrs. Type of series: functional, organism-based. The settings on record: dose 100.0 µmol/kg.
Series [7] is described as follows: Drug metabolism in Sprague-Dawley rat assessed as Sodium 2-(1-acetoxypentyl)benzothioate level at 80 umol/kg, iv measured after 1 min by LC-MS/MS analysis. The note with it: in vivo, dose 80 µmol/kg. The class given is ADME, organism-based.
Series [8] is described as follows: Downregulation of MDA level in MCAO induced C57BL/6J mouse at 100 umol/kg measured after 24 hrs (reference value: 15.1 +/- 0.5 nmol/mg). The class given is functional. The note with it: dose 100 µmol/kg.
The nature of series [9]: Drug metabolism in Sprague-Dawley rat plasma assessed as 2-(1-acetoxypentyl)benzoic acid level at 80 umol/kg, iv measured after 1 min by LC-MS/MS analysis. Type of series: ADME, organism-based. The note with it: in vivo, dose 80 µmol/kg.
In series [10] the target is T1, Liver carboxylesterase. In words: Drug metabolism in PBS assessed as porcine liver esterase mediated H2S release at 500 uM by methylene blue assay. The settings on record: pig, isolated protein. Type of series: ADME.
The nature of series [11]: Drug metabolism in Sprague-Dawley rat assessed as Sodium 2-(1-((3-methylbutanoyl)oxy)pentyl)benzothioate level at 80 umol/kg, iv measured after 1 min by LC-MS/MS analysis. The note with it: in vivo, dose 80 µmol/kg. The class given is ADME, organism-based.
A short description of series [12]: Drug concentration in Sprague-Dawley rat at 80 umol/kg, iv measured after 1 min by LC-MS/MS analysis. The class given is ADME, organism-based. The settings on record: in vivo.
Series [13] can be described thus: Drug metabolism in Sprague-Dawley rat assessed as 3-butylisobenzofuran-1(3H)-one level at 80 umol/kg, iv measured after 1 min by LC-MS/MS analysis. Type of series: ADME, organism-based. The settings on record: in vivo, dose 80 µmol/kg.
The species entered for series [14] is Mus musculus. In words: Neuroprotective activity against MCAO induced C57BL/6J mouse cerebral ischemia model assessed as upregulation of genes related to dopaminergic neuron differentiation by GSEA. Type of series: functional, organism-based.
The species named for series [15] is Mus musculus. In words: Neuroprotective activity against MCAO induced C57BL/6J mouse cerebral ischemia model assessed as cleaved caspase-3 expression by immunofluorescence assay. The class given is functional, organism-based.
For series [16], the species on record is Mus musculus. In words: Neuroprotective activity against MCAO induced C57BL/6J mouse cerebral ischemia model assessed as appearance of high density nissl bodies in thalamic region. Type of series: functional, organism-based.
Series [17] has as its system Mus musculus. The series can be described thus: Induction of iron-sulfur cluster related genes transcriptional level in MCAO induced C57BL/6J mouse at 100 umol/kg measured after 24 hrs by GSEA. Type of series: functional, organism-based. The settings on record: dose 100.0 µmol/kg.
For series [18], the species on record is Mus musculus. The series can be described thus: Neuroprotective activity against MCAO induced C57BL/6J mouse cerebral ischemia model assessed as appearance of high density nissl bodies in hippocampal region. Type of series: functional, organism-based.
The species entered for series [19] is Mus musculus. In words: Neuroprotective activity against MCAO induced C57BL/6J mouse cerebral ischemia model assessed as NeuN expression by immunofluorescence assay. The class given is functional, organism-based.
The species entered for series [20] is Mus musculus. In words: Neuroprotective activity against MCAO induced C57BL/6J mouse cerebral ischemia model assessed as reduction in nuclear leakage. Type of series: functional, organism-based.
Series [21] concerns Mus musculus. The series can be described thus: Downregulation of abnormal ion channel activation related genes expression in MCAO induced C57BL/6J mouse at 100 umol/kg measured after 24 hrs by GSEA. Type of series: functional. The note with it: dose 100.0 µmol/kg.
The next series concerns PC12. The series can be described thus: Neuroprotective activity against ischemia/hypoxia induced cell injury in […] PC12 cells assessed as increase in cell viability at 10 to 20 uM by MTT assay. Type of series: functional, cell-based. The note with it: dose 10-20 µM.
The species entered for series [22] is Mus musculus. In words: Neuroprotective activity against MCAO induced C57BL/6J mouse cerebral ischemia model assessed as upregulation of genes related to neuroprotection by GSEA. Type of series: functional, organism-based.
Series [23] relates to Mus musculus. The series can be described thus: Downregulation of oxidative stress related genes expression in MCAO induced C57BL/6J mouse at 100 umol/kg measured after 24 hrs by GSEA. The class given is functional, organism-based. The settings on record: dose 100.0 µmol/kg.

As for `CCCCC(OC(=O)C(C)C)c1ccccc1C(=O)[S-].[Na+]` (stereo not given), on Liver carboxylesterase [1], the half-life (commonly how long it takes for the measured level to halve) at 500 µM is 15 h.

Molecule `CCCCC(OC(C)=O)c1ccccc1C(=O)SSCC(NC(C)=O)C(=O)O` (stereo not given) came in with a concentration at 1 min in series [2] of 151 µg/mL. Moreover, at Liver carboxylesterase [1], the half-life at 500 µM was found to be 2.98 h. Besides, the Activity in the series on Mus musculus [3] is 20.6%; in series [5], “Non-Toxic”; in series [8], 9.9 nmol/mg. The Drug metabolism in series [4] was determined as 34.4 µg/mL; in series [7], 105.9 µg/mL; in series [9] it was 44.4 µg/mL. Further, in the series “cells”, the viability (usually the share of living cells, or the viability signal relative to a control) at 10 µM worked out at 86.2%. Also, the outcome in the series on Mus musculus [6] was inactive.

For `CCCCC(OC(=O)CC(C)C)c1ccccc1C(=O)[S-].[Na+]` (stereo not given), the half-life at 500 µM on Liver carboxylesterase [1] turned out to be 6.42 h. Moreover, the Drug metabolism at Liver carboxylesterase [10] is 31 µM.

On to `CCCCC(OC(C)=O)c1ccccc1C(=O)O` (stereo not given), for which the Activity in the series with Mus musculus [3] was 20.6%; in series [8], 9.4 nmol/mg. Further, the viability at 10 µM in the series “cells” amounted to 86.4%.

Take `CCCCC(OC(=O)CC(C)C)c1ccccc1C(=O)SSCC(NC(C)=O)C(=O)[O-].[Na+]` (stereo not given): the half-life at 500 µM at Liver carboxylesterase [1] stood at 0.22 h. Moreover, the Drug metabolism in series [11] came to 201.1 µg/mL; in series [9], 41 µg/mL. The Drug uptake result in series [12] (iv, 1 min, dose 80 µmol/kg) is listed as “Not Active”.

Take `CCCCC(OC(=O)CC)c1ccccc1C(=O)SSCC(NC(C)=O)C(=O)[O-].[Na+]` (stereo not given): at Liver carboxylesterase [1], the half-life at 500 µM is 0.333 h.

Turning to `CCCCC(OC(=O)C(C)C)c1ccccc1C(=O)SSCC(NC(C)=O)C(=O)[O-].[Na+]` (stereo not given), the half-life at 500 µM at Liver carboxylesterase [1] was found to be 0.225 h.

`CCCCC1OC(=S)c2ccccc21` (stereo not given): the concentration at 1 min in series [12] (Sprague-Dawley, 80 umol/kg, read-out: Drug uptake) turned out to be 7.5 µg/mL. Further, in series [13], the Drug metabolism is 1.2 µg/mL.

As for `CCCCC(OC(C)=O)c1ccccc1C(=O)[S-].[Na+]` (stereo not given), the result in the series listed under Mus musculus [14], in the series filed under Mus musculus [15], in the series filed under Mus musculus [16], in the series on Mus musculus [17], in the series filed under Mus musculus [18] and in the series listed under Mus musculus [19] was Active. Besides, the result in the series listed under Mus musculus [20], in the series on Mus musculus [6], in the series with Mus musculus [21], in the series with PC12, in the series filed under Mus musculus [22] and in the series with Mus musculus [23] was Active. Further, the concentration at 1 min in [2] was 216 µg/mL. Moreover, the half-life at 500 µM on Liver carboxylesterase [1] came out at 23.3 h. For the same molecule, the Activity in the series with Mus musculus [3] is given as 13.8%; in series [5], “Non-Toxic”; in series [8] it was 6.3 nmol/mg. Moreover, the figures for the Drug metabolism (in series [4]; at Liver carboxylesterase [10]; in series [9]) were 35.5 µg/mL, 2.8 µM and 23.6 µg/mL, respectively. Further, the viability at 10 µM in “cells” came out at 92.5%.
